Results as given in PubChem BioAssay AID1963825 (Molecular Pharmacology Branch, DTP, NCI, 2024).

Assay: Anticancer human tumor 997537-175-T-J1-PDC patient-derived colon adenocarcinoma cell line growth inhibition [POLQ]
Settings: 997537-175-T-J1-PDC complex spheroid viability, combination with POLQ inhibitors; for IC50: curve of first compound; for viability, T/C: stronger effect = lower value
Method in brief: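 Complex spheroid viability model combining PDC tumour cells with endothelial (HUVEC) and MSC stromal cells. Novobiocin, ART-558 or RP6685 were tested singly and in combination with standard and investigational anticancer drugs. Each was titrated in half-log steps from near clinical Cmax, or from 10 microM where Cmax was unknown.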

[1] = second compound 0.0316 µM, first compound 0.0316 µM
[2] = second compound 0.0316 µM, first compound 0.1 µM
[3] = second compound 0.0316 µM, first compound 0.316 µM
[4] = second compound 0.0316 µM, first compound 1 µM
[5] = second compound 0.1 µM, first compound 0.0316 µM
[6] = second compound 0.1 µM, first compound 0.1 µM
[7] = second compound 0.1 µM, first compound 0.316 µM
[8] = second compound 0.1 µM, first compound 1 µM
[9] = second compound 0.316 µM, first compound 0.0316 µM
[10] = second compound 0.316 µM, first compound 0.1 µM
[11] = second compound 0.316 µM, first compound 0.316 µM
[12] = second compound 0.316 µM, first compound 1 µM
[13] = second compound 1 µM, first compound 0.0316 µM
[14] = second compound 1 µM, first compound 0.1 µM
[15] = second compound 1 µM, first compound 0.316 µM
[16] = second compound 1 µM, first compound 1 µM
[17] = second compound 3.16 µM, first compound 0.0316 µM
[18] = second compound 3.16 µM, first compound 0.1 µM
[19] = second compound 3.16 µM, first compound 0.316 µM
[20] = second compound 3.16 µM, first compound 1 µM
[21] = second compound 10 µM, first compound 0.0316 µM
[22] = second compound 10 µM, first compound 0.1 µM
[23] = second compound 10 µM, first compound 0.316 µM
[24] = second compound 10 µM, first compound 1 µM
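Further: luminescence signal used as a surrogate for viable cells; spheroids exposed to drugs for seven days before readout.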

## C=CCn1c(=O)c2cnc(Nc3ccc(N4CCN(C)CC4)cc3)nc2n1-c1cccc(C(C)(C)O)n1 + COC1C(OC(N)=O)C(O)C(Oc2ccc3c(O)c(NC(=O)c4ccc(O)c(CC=C(C)C)c4)c(=O)oc3c2C)OC1(C)C
Second compound 0.0316 µM
  IC50: > 1 µM
Second compound 0.1 µM
  IC50: > 1 µM
Second compound 0.316 µM
  IC50: > 1 µM
Second compound 1 µM
  IC50: > 1 µM
Second compound 3.16 µM
  IC50: > 1 µM
Second compound 10 µM
  IC50: > 1 µM
Second compound 0.0316 µM, first compound 0.00316 µM
  viability, T/C: 92.8%
Second compound 0.0316 µM, first compound 0.01 µM
  viability, T/C: 102%
[1]
  viability, T/C: 105%
[2]
  viability, T/C: 92.1%
[3]
  viability, T/C: 105%
[4]
  viability, T/C: 71%
Second compound 0.1 µM, first compound 0.00316 µM
  viability, T/C: 115%
Second compound 0.1 µM, first compound 0.01 µM
  viability, T/C: 106%
[5]
  viability, T/C: 91.9%
[6]
  viability, T/C: 92.2%
[7]
  viability, T/C: 81.7%
[8]
  viability, T/C: 66.2%
Second compound 0.316 µM, first compound 0.00316 µM
  viability, T/C: 88.5%
Second compound 0.316 µM, first compound 0.01 µM
  viability, T/C: 101%
[9]
  viability, T/C: 103%
[10]
  viability, T/C: 103%
[11]
  viability, T/C: 92.5%
[12]
  viability, T/C: 56.5%
Second compound 1 µM, first compound 0.00316 µM
  viability, T/C: 103%
Second compound 1 µM, first compound 0.01 µM
  viability, T/C: 98.6%
[13]
  viability, T/C: 98.2%
[14]
  viability, T/C: 90.3%
[15]
  viability, T/C: 102%
[16]
  viability, T/C: 87.8%
Second compound 3.16 µM, first compound 0.00316 µM
  viability, T/C: 115%
Second compound 3.16 µM, first compound 0.01 µM
  viability, T/C: 93.9%
[17]
  viability, T/C: 96.6%
[18]
  viability, T/C: 99.1%
[19]
  viability, T/C: 90.2%
[20]
  viability, T/C: 64.1%
Second compound 10 µM, first compound 0.00316 µM
  viability, T/C: 98%
Second compound 10 µM, first compound 0.01 µM
  viability, T/C: 82.5%
[21]
  viability, T/C: 93.3%
[22]
  viability, T/C: 81.4%
[23]
  viability, T/C: 78.5%
[24]
  viability, T/C: 56.4%

## CNCc1ccc(-c2[nH]c3cc(F)cc4c3c2CCNC4=O)cc1 + COC1C(OC(N)=O)C(O)C(Oc2ccc3c(O)c(NC(=O)c4ccc(O)c(CC=C(C)C)c4)c(=O)oc3c2C)OC1(C)C
Second compound 0.0316 µM
  IC50: > 10 µM
Second compound 0.1 µM
  IC50: > 10 µM
Second compound 0.316 µM
  IC50: > 10 µM
Second compound 1 µM
  IC50: > 10 µM
Second compound 3.16 µM
  IC50: > 10 µM
Second compound 10 µM
  IC50: > 10 µM
[1]
  viability, T/C: 104%
[2]
  viability, T/C: 96.7%
[3]
  viability, T/C: 90.3%
[4]
  viability, T/C: 97.5%
Second compound 0.0316 µM, first compound 3.16 µM
  viability, T/C: 101%
Second compound 0.0316 µM, first compound 10 µM
  viability, T/C: 104%
[5]
  viability, T/C: 102%
[6]
  viability, T/C: 97%
[7]
  viability, T/C: 80.2%
[8]
  viability, T/C: 97.9%
Second compound 0.1 µM, first compound 3.16 µM
  viability, T/C: 103%
Second compound 0.1 µM, first compound 10 µM
  viability, T/C: 106%
[9]
  viability, T/C: 100%
[10]
  viability, T/C: 101%
[11]
  viability, T/C: 93.6%
[12]
  viability, T/C: 87%
Second compound 0.316 µM, first compound 3.16 µM
  viability, T/C: 95.5%
Second compound 0.316 µM, first compound 10 µM
  viability, T/C: 78.3%
[13]
  viability, T/C: 94.7%
[14]
  viability, T/C: 101%
[15]
  viability, T/C: 101%
[16]
  viability, T/C: 92.8%
Second compound 1 µM, first compound 3.16 µM
  viability, T/C: 99.3%
Second compound 1 µM, first compound 10 µM
  viability, T/C: 84.1%
[17]
  viability, T/C: 97.8%
[18]
  viability, T/C: 98.1%
[19]
  viability, T/C: 104%
[20]
  viability, T/C: 101%
Second compound 3.16 µM, first compound 3.16 µM
  viability, T/C: 85.8%
Second compound 3.16 µM, first compound 10 µM
  viability, T/C: 86.8%
[21]
  viability, T/C: 99.5%
[22]
  viability, T/C: 95.9%
[23]
  viability, T/C: 105%
[24]
  viability, T/C: 96.6%
Second compound 10 µM, first compound 3.16 µM
  viability, T/C: 97.5%
Second compound 10 µM, first compound 10 µM
  viability, T/C: 90.3%
